# Measured values as given in ChEMBL document CHEMBL3785042, “Discovery of MK-8831, A Novel Spiro-Proline Macrocycle as a Pan-Genotypic HCV-NS3/4a Protease Inhibitor” (ACS Med Chem Lett, 2016).
# Columns and labels:
# [1] = Inhibition of HCV genotype 3a full length NS3/4A protease using Ac-C(Eu)DDMEEAbu[COO]ASK(QSY7)-amide as substrate preincubated for 30 mins followed by substrate addition measured after 2.5 hrs by TRF assay; design: species or system Hepatitis C virus subtype 3a
# [2] = AUC (0 to 24 hrs) in rat at 5 mg/kg, po; format: ADME, organism-based; design: dose 5 mg/kg, time < 24 hr, route oral; settings: in vivo
# Canis familiaris [3] = assay: Toxicity in conscious telemetered dog assessed as effect on body temperature; format: organism-based, Canis lupus familiaris; settings: in vivo
# Hepatitis C virus [4] = assay: Antiviral activity against HCV genotype 2a infected in human HuH7 cells assessed as inhibition of viral replication after 72 hrs by RT-PCR method in presence of 100% normal human serum; format: functional, Hepacivirus hominis; settings: Huh-7, 72 h
# Hepatitis C virus [5] = assay: Antiviral activity against HCV genotype 1a infected in human HuH7 cells assessed as inhibition of viral replication after 72 hrs by RT-PCR method in presence of 100% normal human serum; format: functional, Hepacivirus hominis; settings: subtype 1a, Huh-7, 72 h
# Rattus norvegicus [6] = species: Rattus norvegicus; assay: Protein binding in rat; format: ADME, organism-based; settings: in vivo
# Cytochrome P450 2D6 = Cytochrome P450 2D6 (Homo sapiens, UniProt P10635); assay: Inhibition of CYP2D6 (unknown origin) up to 50 uM; format: ADME
# Canis familiaris [7] = species: Canis familiaris; assay: Protein binding in dog; format: ADME, organism-based, Canis lupus familiaris; settings: in vivo
# Cytochrome P450 3A4 = Cytochrome P450 3A4 (Homo sapiens, UniProt P08684); assay: Inhibition of CYP3A4 (unknown origin) up to 50 uM; format: ADME
# Salmonella typhimurium = assay: Mutagenicity in Salmonella typhimurium by Ames test; format: toxicity, organism-based; settings: salmonella enterica subsp. enterica serovar typhimurium
# Hepatitis C virus [8] = assay: Antiviral activity against HCV genotype 1a infected in human HuH7 cells assessed as inhibition of viral replication after 72 hrs by RT-PCR method; format: functional, organism-based, Hepacivirus hominis; settings: subtype 1a, Huh-7, 72 h
# [9] = biological target: Hepatitis C virus serine protease, NS3/NS4A (Hepatitis C virus, UniProt A3EZI9+D2K2A8, R155K); assay: Inhibition of HCV genotype 1b NS3/4A protease R155K mutant using Ac-C(Eu)DDMEEAbu[COO]ASK(QSY7)-amide as substrate preincubated for 30 mins followed by substrate addition measured after 2.5 hrs by TRF assay; design: species or system Hepatitis C virus subtype 1b
# Hepatitis C virus [10] = assay: Antiviral activity against HCV genotype 3a infected in human HuH7 cells assessed as inhibition of viral replication after 72 hrs by RT-PCR method; format: functional, organism-based, Hepacivirus hominis; settings: Huh-7, 72 h
# Cytochrome P450 2C9 = Cytochrome P450 2C9 (Homo sapiens, UniProt P11712); assay: Inhibition of CYP2C9 (unknown origin) up to 50 uM; format: ADME
# Canis familiaris [11] = assay: Toxicity in telemetered dog up to 40 mg/kg; format: organism-based, Canis lupus familiaris; settings: in vivo
# Canis familiaris [12] = assay: Toxicity in conscious telemetered dog assessed as effect on blood pressure; format: organism-based, Canis lupus familiaris; settings: in vivo
# [13] = Inhibition of HCV genotype 1b NS3/4A protease D168Y mutant using Ac-C(Eu)DDMEEAbu[COO]ASK(QSY7)-amide as substrate preincubated for 30 mins followed by substrate addition measured after 2.5 hrs by TRF assay; design: species or system Hepatitis C virus subtype 1b
# [14] = Inhibition of HCV genotype 1b full length NS3/4A protease using Ac-C(Eu)DDMEEAbu[COO]ASK(QSY7)-amide as substrate preincubated for 30 mins followed by substrate addition measured after 2.5 hrs by TRF assay; design: species or system Hepatitis C virus subtype 1b
# Hepatitis C virus [15] = assay: Antiviral activity against HCV genotype 2b infected in human HuH7 cells assessed as inhibition of viral replication after 72 hrs by RT-PCR method; format: functional, organism-based, Hepacivirus hominis; settings: Huh-7, 72 h
# [16] = Oral bioavailability in rat at 5 mg/kg; format: ADME, organism-based; settings: in vivo
# Rattus norvegicus [17] = assay: Toxicity in telemetered rat up to 40 mg/kg; format: organism-based; settings: in vivo
# Cytochrome P450 2C8 = biological target: T1, Cytochrome P450 2C8 (Homo sapiens, UniProt P10632); assay: Inhibition of CYP2C8 (unknown origin) up to 20 uM; format: ADME
# T1 sequence (P10632 whole entry): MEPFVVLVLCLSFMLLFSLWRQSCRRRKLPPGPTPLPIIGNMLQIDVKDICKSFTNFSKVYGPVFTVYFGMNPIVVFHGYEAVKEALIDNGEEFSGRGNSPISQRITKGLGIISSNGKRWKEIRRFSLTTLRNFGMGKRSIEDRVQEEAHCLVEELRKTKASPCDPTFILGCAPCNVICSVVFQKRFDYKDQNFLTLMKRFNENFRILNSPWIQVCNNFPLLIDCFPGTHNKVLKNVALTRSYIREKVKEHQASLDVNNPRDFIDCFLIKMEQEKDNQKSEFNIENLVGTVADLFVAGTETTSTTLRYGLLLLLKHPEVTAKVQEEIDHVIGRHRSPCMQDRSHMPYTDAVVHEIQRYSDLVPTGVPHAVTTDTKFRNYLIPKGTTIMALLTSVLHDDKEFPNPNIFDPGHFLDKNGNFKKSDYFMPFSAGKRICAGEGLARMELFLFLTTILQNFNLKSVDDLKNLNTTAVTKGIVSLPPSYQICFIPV
# Hepatitis C virus [18] = assay: Antiviral activity against HCV genotype 1b infected in human HuH7 cells assessed as inhibition of viral replication after 72 hrs by RT-PCR method; format: functional, organism-based, Hepacivirus hominis; settings: Huh-7, 72 h
# [19] = Inhibition of HCV genotype 1a NS3/4A protease using Ac-C(Eu)DDMEEAbu[COO]ASK(QSY7)-amide as substrate preincubated for 30 mins followed by substrate addition measured after 2.5 hrs by TRF assay; design: species or system Hepatitis C virus subtype 1a
# Rattus norvegicus [20] = assay: Toxicity in rat at 40 mg/kg/day measured for 3 days of dosing; format: organism-based; settings: in vivo, 72 h
# Canis familiaris [21] = assay: Toxicity in conscious telemetered dog assessed as effect on respiratory function; format: organism-based, Canis lupus familiaris; settings: in vivo
# [22] = Oral bioavailability in dog at 1 mg/kg; format: ADME, organism-based, Canis lupus familiaris; settings: in vivo
# Liver = assay: Drug uptake in rat liver at 40 mg/kg/day; format: ADME, organism-based; settings: in vivo, read-out: Drug uptake
# Hepatitis C virus [23] = assay: Antiviral activity against HCV genotype 1b infected in human HuH7 cells assessed as inhibition of viral replication after 72 hrs by RT-PCR method in presence of 100% normal human serum; format: functional, Hepacivirus hominis; settings: Huh-7, 72 h
# Hepatitis C virus [24] = assay: Antiviral activity against HCV genotype 2a infected in human HuH7 cells assessed as inhibition of viral replication after 72 hrs by RT-PCR method; format: functional, organism-based, Hepacivirus hominis; settings: Huh-7, 72 h
# [25] = Inhibition of HCV genotype 1b NS3/4A protease A156V mutant using Ac-C(Eu)DDMEEAbu[COO]ASK(QSY7)-amide as substrate preincubated for 30 mins followed by substrate addition measured after 2.5 hrs by TRF assay; design: species or system Hepatitis C virus subtype 1b
# Rattus norvegicus [26] = assay: Hepatotoxicity in rat at 134 uM measured for 3 days of dosing; format: toxicity, organism-based; settings: in vivo, 72 h
# Hepatitis C virus [27] = assay: Antiviral activity against HCV genotype 3a infected in human HuH7 cells assessed as inhibition of viral replication after 72 hrs by RT-PCR method in presence of 100% normal human serum; format: functional, Hepacivirus hominis; settings: Huh-7, 72 h
# Canis familiaris [28] = assay: Toxicity in conscious telemetered dog assessed as effect on ECG parameters; format: organism-based, Canis lupus familiaris; settings: in vivo
# [29] = Inhibition of HCV genotype 1b NS3/4A protease A156T mutant using Ac-C(Eu)DDMEEAbu[COO]ASK(QSY7)-amide as substrate preincubated for 30 mins followed by substrate addition measured after 2.5 hrs by TRF assay; design: species or system Hepatitis C virus subtype 1b
# Canis familiaris [30] = assay: Toxicity in conscious telemetered dog assessed as effect on heart rate; format: organism-based, Canis lupus familiaris; settings: in vivo
smiles,measurement,setting,value
COc1ccc2nc(C3CC3)c3c(c2c1)CC[C@]1(C[C@H]2C(=O)N[C@]4(C(=O)NS(=O)(=O)C5(C)CC5)C[C@H]4/C=C\CCCCC[C@H](NC(=O)OCC(C)C)C(=O)N2C1)O3,IC50,[1],1.33 nM
same,AUC(0-t) at 24 h,[2],2.3 µM·h
COc1ccc2nc(C(F)(F)F)c3c(c2c1)CC[C@]1(C[C@H]2C(=O)N[C@]4(C(=O)NS(=O)(=O)C5(C)CC5)C[C@H]4/C=C\CCCCC[C@H](NC(=O)OCC(C)C)C(=O)N2C1)O3,Activity,Canis familiaris [3],Non-toxic
same,EC90,Hepatitis C virus [4],60 nM
same,EC90,Hepatitis C virus [5],68 nM
same,IC50,[1],0.41 nM
same,PB,Rattus norvegicus [6],Active
same,inhibition (INH),Cytochrome P450 2D6,Not Active
same,PB,Canis familiaris [7],Active
same,inhibition (INH),Cytochrome P450 3A4,Not Active
same,Activity,Salmonella typhimurium,Non-toxic
same,EC50,Hepatitis C virus [8],0.7 nM
same,IC50,[9],0.01 nM
same,EC50,Hepatitis C virus [10],1.7 nM
same,inhibition (INH),Cytochrome P450 2C9,Not Active
same,Activity,Canis familiaris [11],Non-toxic
same,Activity,Canis familiaris [12],Non-toxic
same,IC50,[13],0.023 nM
same,IC50,[14],0.004 nM
same,EC50,Hepatitis C virus [15],3.4 nM
same,bioavailability,[16],31%
same,Activity,Rattus norvegicus [17],Non-toxic
same,inhibition (INH),Cytochrome P450 2C8,Not Active
same,EC50,Hepatitis C virus [18],0.8 nM
same,AUC(0-t) at 24 h,[2],9 µM·h
same,IC50,[19],0.009 nM
same,Activity,Rattus norvegicus [20],Non-toxic
same,Activity,Canis familiaris [21],Non-toxic
same,bioavailability,[22],17%
same,concentration,Liver,134 µM
same,EC90,Hepatitis C virus [23],20 nM
same,EC50,Hepatitis C virus [24],0.9 nM
same,IC50,[25],2.76 nM
same,Activity,Rattus norvegicus [26],Non-toxic
same,EC90,Hepatitis C virus [27],90 nM
same,Activity,Canis familiaris [28],Non-toxic
same,IC50,[29],0.483 nM
same,Activity,Canis familiaris [30],Non-toxic
CC(C)(C)OC(=O)N[C@H]1CCCCC/C=C\[C@@H]2C[C@@]2(C(=O)NS(=O)(=O)C2(C)CC2)NC(=O)[C@@H]2C[C@]3(CCc4c(c(C5CC5)nc5ccccc45)O3)CN2C1=O,IC50,[1],13 nM
same,AUC(0-t) at 24 h,[2],2 µM·h
COc1ccc2nc(C)c3c(c2c1)CC[C@]1(C[C@H]2C(=O)N[C@]4(C(=O)NS(=O)(=O)C5(C)CC5)C[C@H]4/C=C\CCCCC[C@H](NC(=O)OCC(C)C)C(=O)N2C1)O3,IC50,[1],0.18 nM
same,AUC(0-t) at 24 h,[2],0.13 µM·h
COc1ccc2nc(C(F)(F)F)c3c(c2c1)CC[C@]1(C[C@H]2C(=O)N[C@]4(C(=O)NS(=O)(=O)C5(C)CC5)C[C@H]4/C=C\CCCCC[C@H](NC(=O)OC(C)(C)C)C(=O)N2C1)O3,IC50,[1],0.27 nM
same,AUC(0-t) at 24 h,[2],2 µM·h
